One data set has as its target T1, TAX-4 (Caenorhabditis elegans, UniProt Q03611).
T1 sequence (Q03611 1-733): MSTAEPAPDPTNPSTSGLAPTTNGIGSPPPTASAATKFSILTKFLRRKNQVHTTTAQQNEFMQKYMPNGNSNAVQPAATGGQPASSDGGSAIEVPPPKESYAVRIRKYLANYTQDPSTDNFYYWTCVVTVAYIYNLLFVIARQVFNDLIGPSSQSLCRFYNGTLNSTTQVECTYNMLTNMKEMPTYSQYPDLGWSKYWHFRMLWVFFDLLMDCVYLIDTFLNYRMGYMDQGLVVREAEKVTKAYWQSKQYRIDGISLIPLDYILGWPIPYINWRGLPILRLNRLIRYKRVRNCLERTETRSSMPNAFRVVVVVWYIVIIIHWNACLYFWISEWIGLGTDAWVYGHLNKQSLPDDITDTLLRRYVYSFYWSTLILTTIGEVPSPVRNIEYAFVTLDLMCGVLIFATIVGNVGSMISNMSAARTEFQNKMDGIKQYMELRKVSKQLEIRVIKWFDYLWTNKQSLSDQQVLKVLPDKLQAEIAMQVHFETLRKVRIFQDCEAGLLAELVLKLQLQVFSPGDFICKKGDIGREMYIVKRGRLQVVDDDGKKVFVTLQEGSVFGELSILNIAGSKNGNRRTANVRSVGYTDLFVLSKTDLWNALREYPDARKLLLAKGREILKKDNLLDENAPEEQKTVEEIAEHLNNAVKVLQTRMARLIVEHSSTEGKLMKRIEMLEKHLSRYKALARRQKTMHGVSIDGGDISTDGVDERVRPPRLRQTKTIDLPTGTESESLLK
Kind of data set: cryo-EM structure at […] Å of cGMP-bound channel. Format: cell-based.

The data set “cryo-EM structure” concerns the molecule itself. The data set is described as follows: cryo-EM structure.

As usually defined, the EC50 is the concentration needed to bring the measured effect to its halfway point. Turning to `Nc1nc2c(ncn2[C@@H]2O[C@@H]3COP(=O)(O)O[C@H]3[C@H]2O)c(=O)[nH]1` [cGMP], on TAX-4, the EC50 stood at 160 nM.

B1: TAX-4 (cyclic nucleotide-gated channel CNGA subunit from C. elegans), cGMP-bound (natural protein, UniProt Q03611 1-733, looked up)
chain: MSTAEPAPDPTNPSTSGLAPTTNGIGSPPPTASAATKFSILTKFLRRKNQVHTTTAQQNEFMQKYMPNGNSNAVQPAATGGQPASSDGGSAIEVPPPKESYAVRIRKYLANYTQDPSTDNFYYWTCVVTVAYIYNLLFVIARQVFNDLIGPSSQSLCRFYNGTLNSTTQVECTYNMLTNMKEMPTYSQYPDLGWSKYWHFRMLWVFFDLLMDCVYLIDTFLNYRMGYMDQGLVVREAEKVTKAYWQSKQYRIDGISLIPLDYILGWPIPYINWRGLPILRLNRLIRYKRVRNCLERTETRSSMPNAFRVVVVVWYIVIIIHWNACLYFWISEWIGLGTDAWVYGHLNKQSLPDDITDTLLRRYVYSFYWSTLILTTIGEVPSPVRNIEYAFVTLDLMCGVLIFATIVGNVGSMISNMSAARTEFQNKMDGIKQYMELRKVSKQLEIRVIKWFDYLWTNKQSLSDQQVLKVLPDKLQAEIAMQVHFETLRKVRIFQDCEAGLLAELVLKLQLQVFSPGDFICKKGDIGREMYIVKRGRLQVVDDDGKKVFVTLQEGSVFGELSILNIAGSKNGNRRTANVRSVGYTDLFVLSKTDLWNALREYPDARKLLLAKGREILKKDNLLDENAPEEQKTVEEIAEHLNNAVKVLQTRMARLIVEHSSTEGKLMKRIEMLEKHLSRYKALARRQKTMHGVSIDGGDISTDGVDERVRPPRLRQTKTIDLPTGTESESLLK
As usually defined, the stoichiometry N is the number of molecules, sites or subunits per partner or assembly. With B1, the “stoichiometry N” value in “cryo-EM structure” turned out to be 4.

Source of the values: paper PMC5783306 (Nature, 2017).
